This is an account of results in patent publication US11358969B2, “Indole AHR inhibitors and uses thereof” (Ikena Oncology, Inc., priority 2017, dated 2022).

In one series the target is T1, AHR (UniProt P35869).
T1 construct: IC50
T1 sequence (P35869 1-848): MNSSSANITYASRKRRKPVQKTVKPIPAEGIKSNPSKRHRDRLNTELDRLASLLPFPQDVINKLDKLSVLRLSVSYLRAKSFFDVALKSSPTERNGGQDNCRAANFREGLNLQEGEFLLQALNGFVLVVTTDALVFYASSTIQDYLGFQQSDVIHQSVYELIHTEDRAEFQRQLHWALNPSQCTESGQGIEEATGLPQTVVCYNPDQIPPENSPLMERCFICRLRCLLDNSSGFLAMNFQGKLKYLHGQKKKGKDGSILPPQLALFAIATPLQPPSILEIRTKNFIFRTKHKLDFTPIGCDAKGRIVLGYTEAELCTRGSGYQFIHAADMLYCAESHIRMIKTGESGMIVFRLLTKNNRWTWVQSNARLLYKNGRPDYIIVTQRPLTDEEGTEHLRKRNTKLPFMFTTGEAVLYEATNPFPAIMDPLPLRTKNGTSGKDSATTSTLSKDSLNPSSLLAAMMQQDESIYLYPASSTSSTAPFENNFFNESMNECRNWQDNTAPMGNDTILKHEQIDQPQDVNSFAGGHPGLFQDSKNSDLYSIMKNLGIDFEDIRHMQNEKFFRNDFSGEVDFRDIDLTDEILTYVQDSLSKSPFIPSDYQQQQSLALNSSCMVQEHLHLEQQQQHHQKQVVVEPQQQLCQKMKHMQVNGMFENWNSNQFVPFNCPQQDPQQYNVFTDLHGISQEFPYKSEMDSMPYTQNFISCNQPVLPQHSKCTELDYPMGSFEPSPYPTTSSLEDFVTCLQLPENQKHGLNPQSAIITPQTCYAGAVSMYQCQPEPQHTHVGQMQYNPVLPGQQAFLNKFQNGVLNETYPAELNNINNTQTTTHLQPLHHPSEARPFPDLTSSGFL
The series is described as follows: DRE-Luciferase Reporter Assay (Alternate Method) (Example 1B). The series is classed as cell-based, murine or human. As to conditions: cell line and AHR activating ligand not specified.

Series [1] can be described thus: Mouse Pharmacokinetic Study (Example 1C). The following applies: mouse, plasma, CD-1 mice; for Vd: read-out: Vdss. The series is classed as in vivo. Here is the method:
Formulations of compounds set forth in Table 4 were administered intravenously or orally via gavage to CD-1 mice. Typically, at 0.167, 0.5, 1, 2, 4, 6, 12, and 24 hours post-dose, blood was collected and processed to plasma by centrifugation and stored at −80° C. until analysis.
Internal standard was added to each sample prior to protein precipitation with acetonitrile. The precipitates were filtered through a Phree phospholipid removal filter plate and the samples were analyzed by LC/MS/MS. A standard curve was prepared in plasma from typically from 1.0 ng/mL to 3000 ng/mL and processed in the same manner as the samples. Sample analysis was typically performed on a suitable LC/MS/MS system fitted with an analytical UPLC column and compounds eluted from the analytical column with a gradient from 30-95% 0.1% formic acid (v/v) in ACN: 0.1% formic acid (v/v) in water. Mass spectrometric detection of test compound and the internal standard was performed by MRM in positive mode. The pharmacokinetics of each compound were analyzed by Phoenix WinNonlin software (Pharsight, St. Louis, Mo.) via non-compartmental analysis.

For the next series, the system named is Cyp1a1. The series is described as follows: In Vivo Mouse liver and spleen Cyp1a1 Modulation Assay (Example 1E). The arrangement: species or system C57BL/6 mice. As to conditions: po, 4 h, dose 30 mg/kg, with AHR agonist VAG539 30 mg/kg po, qPCR. Here is the method: C57BL/6 mice, female, 6-8 weeks old, weighing approximately 18-20 g were purchased from Shanghai Lingchang Biological Technology Co., Ltd or other certified vendors and used in the studies. Animal husbandry, feeding and health conditions are according to animal welfare guidelines. VAG539 (30 mg/kg, po) was used as AHRagonist, and test compounds were formulated in suitable vehicles, typically 0.5% methylcellulose).
C57BL/6 mice (n=3 per group) were treated with AHR agonist alone or with AHR agonist and test compounds. Animals were sacrificed at 4 or 10 hours after treatment upon which their livers and spleens were collected and subsequently analyzed by qPCR. Normalized fold induction of cyp1a1 was determined by comparing mCYP1A1 and mGAPDH counts (ct) according to: normalized fold=2^−ΔΔCt. The percent inhibition was calculated according to: […]

Series [2] is described as follows: In Vitro Mouse liver S9 Metabolic Stability Assay (Example 1D). The series is classed as in vitro ADME. The following applies: CD-1 mouse liver S9, 1 μM compound, 1 mg/mL S9 protein, 37° C., NADPH regenerating system, UDPGA, PAPS. The gist of the method: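 Compound at 1 μM final (0.1% DMSO) incubated at 37° C with pooled CD-1 mouse liver S9 (1 mg/mL protein) plus NADPH-regenerating system, UDPGA and PAPS. Samples at 0 and 60 min quenched in cold acetonitrile with internal standard; LC-MS/MS analyte/IS peak-area ratios give % remaining at 60 min.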

The mark [3] stands for this setting: read-out: Cyp1a1 inhibition, Liver, 4 h.
Setting [4] is: read-out: Cyp1a1 inhibition, Spleen, 4 h.

Where two headings read alike, the source gives them in different places. Where only a bound is given, the exact number is not on record here.

In the case of `Fc1cncc(-c2cc(NCCc3c[nH]c4ccccc34)n3ncc(Br)c3n2)c1` [I-39, 3-Bromo-5-(5-fluoro-3-pyridyl)-N-[2-(1H-indol-3-yl)ethyl]pyrazolo[1,5-a]pyrimidin-7-amine], at AHR, the IC50 (as a rule, the concentration at which inhibition is half-maximal) was less than 500 nM. In addition, in series [1] (po, 30 mg/kg), the bioavailability (usually dose-corrected exposure relative to a reference, in per cent) turned out to be 17%; the total exposure AUC(0-inf) (usually total exposure, with the tail of the curve extrapolated) came to 1610 ng·h/mL; the AUC(0-t) (usually the area under the concentration-time curve up to a stated or last time point) was 1600 ng·h/mL; the concentration peaked (Cmax) at 799 ng/mL. The half-life (commonly the time in which the quantity being followed falls by half) in series [1] (po, 30 mg/kg) was 3.35 h. Further, in series [1] (iv, 3 mg/kg), the AUC(0-inf) worked out at 931 ng·h/mL; the area under the curve AUC(0-t) is 908 ng·h/mL; the clearance – broadly, a measure of how efficiently the substance is removed, as volume per time – turned out to be 53.7 mL/min/kg; the half-life was 1.31 h. For the same compound, the Vd in series [1] (iv, 3 mg/kg) was 3.5 L/kg. For the same compound, the inhibition – broadly, the change of the read-out against control, counted positive when it falls – at 30 mg/kg in the series with Cyp1a1 (setting [3]) was determined as 90%. In the series with Cyp1a1 (setting [4]), the inhibition at 30 mg/kg came to 69%. Also, the “Mouse S9 Stability: % Remaining After 60 Minutes” value in series [2] came out at 30%.
As for `CC(C)c1cnn2c(NCCc3c[nH]c4ccccc34)cc(-c3cccnc3)nc12` [I-46, N-[2-(1H-Indol-3-yl)ethyl]-3-isopropyl-5-(3-pyridyl)pyrazolo[1,5-a]pyrimidin-7-amine], at AHR, the IC50 was less than 500 nM. Also, the inhibition at 30 mg/kg worked out at 96% in the series with Cyp1a1 (setting [3]) and 94% in the series on Cyp1a1 (setting [4]).
On the same counts, the results for `CC(=O)c1cnn2c(NCCc3c[nH]c4ccccc34)cc(-c3cncc(F)c3)nc12` [I-57, 1-[5-(5-Fluoro-3-pyridyl)-7-[2-(1H-indol-3-yl)ethylamino]pyrazolo[1,5-a]pyrimidin-3-yl]ethanone] are less than 500 nM, 77% and 66%.
As to `C[C@@H](O)c1cnn2c(N[C@@H]3CCc4[nH]c5ccccc5c4C3)cc(-c3cncc(F)c3)nc12` [I-198a, (1R)-1-[5-(5-Fluoro-3-pyridyl)-7-[[(3R)-2,3,4,9-tetrahydro-1H-carbazol-3-yl]amino]pyrazolo[1,5-a]pyrimidin-3-yl]ethanol], the IC50 against AHR was less than 500 nM. Further, in series [1] (po, 30 mg/kg), the bioavailability turned out to be 52%, the AUC(0-inf) worked out at 4050 ng·h/mL, the AUC(0-t) was found to be 3960 ng·h/mL and the highest level (Cmax) was 721 ng/mL. For the same compound, in series [1] (po, 30 mg/kg), the Tmax – broadly, the time at which the peak concentration occurs – is 1 h and the half-life was 4.2 h. For the same compound, in series [1] (iv, 3 mg/kg), the AUC(0-inf) amounted to 772 ng·h/mL, the AUC(0-t) turned out to be 765 ng·h/mL, the clearance was determined as 64.8 mL/min/kg and the half-life was 4.3 h. Further, the Vd in series [1] (iv, 3 mg/kg) was found to be 12.1 L/kg. Further, the “Mouse S9 Stability: % Remaining After 60 Minutes” value in series [2] is listed as 30%.
As to `CN(C)c1cnn2c(NCCc3c[nH]c4ccccc34)cc(-c3cncc(F)c3)nc12` [I-203, 5-(5-fluoro-3-pyridyl)-N7-[2-(1H-indol-3-yl)ethyl]-N3,N3-dimethyl-pyrazolo[1,5-a]pyrimidine-3,7-diamine], the IC50 on AHR is less than 500 nM. Moreover, in series [1] (po, 30 mg/kg), the bioavailability was 12%, the AUC(0-inf) was 657 ng·h/mL, the AUC(0-t) worked out at 656 ng·h/mL and the Cmax (commonly the highest concentration seen after dosing) was 604 ng/mL. In addition, in series [1] (po, 30 mg/kg), the Tmax is 0.2 h and the half-life is 0.7 h. Moreover, in series [1] (iv, 3 mg/kg), the AUC(0-inf) turned out to be 565 ng·h/mL, the AUC(0-t) is 555 ng·h/mL, the clearance worked out at 88.5 mL/min/kg and the half-life was 2.3 h. The Vd in series [1] (iv, 3 mg/kg) is 5.8 L/kg. Moreover, the “Mouse S9 Stability: % Remaining After 60 Minutes” value in series [2] worked out at 0%.
On to `CN(C)c1cnn2c(N[C@H]3Cc4ccc(O)cc4C3)cc(-c3cncc(F)c3)nc12` [I-204b, (2S)-2-[[3-(dimethylamino)-5-(5-fluoro-3-pyridyl)pyrazolo[1,5-a]pyrimidin-7-yl]amino]indan-5-ol], for which, at AHR, the IC50 is less than 500 nM. In series [1] (po, 30 mg/kg), this compound gave a bioavailability of 2%, an AUC(0-inf) of 67 ng·h/mL, an AUC(0-t) of 63 ng·h/mL and a Cmax of 55 ng/mL. In addition, in series [1] (po, 30 mg/kg), the Tmax was 0.2 h and the half-life is 3.2 h. In series [1] (iv, 3 mg/kg), this compound had a total exposure AUC(0-inf) of 455 ng·h/mL, an AUC(0-t) of 454 ng·h/mL, a clearance of 110 mL/min/kg and a half-life of 0.9 h. Also, in series [1] (iv, 3 mg/kg), the Vd was 4 L/kg. Besides, the “Mouse S9 Stability: % Remaining After 60 Minutes” value in series [2] came to 0%.
`Cc1cnn2c(N[C@H]3Cc4ccc(O)cc4C3)cc(-c3cncc(F)c3)nc12` [I-219, (2S)-2-[[5-(5-fluoro-3-pyridyl)-3-methyl-pyrazolo[1,5-a]pyrimidin-7-yl]amino]indan-5-ol] gave an IC50 against AHR of less than 500 nM. In series [1] (po, 30 mg/kg), this compound had a bioavailability of 2%, an area under the curve AUC(0-inf) of 215 ng·h/mL, an AUC(0-t) of 132 ng·h/mL and a Cmax of 48.9 ng/mL. Besides, the Tmax in series [1] (po, 30 mg/kg) was 0.2 h. In series [1] (iv, 3 mg/kg), this compound gave an AUC(0-inf) of 682 ng·h/mL, an AUC(0-t) of 678 ng·h/mL, a clearance of 73.3 mL/min/kg and a half-life of 0.7 h. For the same compound, the Vd in series [1] (iv, 3 mg/kg) turned out to be 2.4 L/kg. In addition, the “Mouse S9 Stability: % Remaining After 60 Minutes” value in series [2] is listed as 5%.
The compound `C[C@@H](O)c1cnn2c(NCCc3c[nH]c4ccccc34)cc(-c3cncc(F)c3)nc12` [I-222a, (1R)-1-[5-(5-Fluoro-3-pyridyl)-7-[2-(1H-indol-3-yl)ethylamino]pyrazolo[1,5-a]pyrimidin-3-yl]ethanol] displayed a concentration for half-maximal inhibition (IC50) on AHR of less than 500 nM. Besides, in series [1] (po, 30 mg/kg), the bioavailability was found to be 16%, the AUC(0-inf) came to 2240 ng·h/mL, the exposure AUC(0-t) is 2230 ng·h/mL and the Cmax is 2870 ng/mL. Also, in series [1] (po, 30 mg/kg), the Tmax was 0.2 h and the half-life was 1.7 h. In series [1] (iv, 3 mg/kg), this compound had an AUC(0-inf) of 1330 ng·h/mL, an AUC(0-t) of 1330 ng·h/mL, a clearance of 36.9 mL/min/kg and a half-life of 2.4 h. The Vd in series [1] (iv, 3 mg/kg) was found to be 1.5 L/kg. In addition, the “Mouse S9 Stability: % Remaining After 60 Minutes” value in series [2] is 1%.
As to `C[C@H](O)c1cnn2c(NCCc3c[nH]c4ccccc34)cc(-c3cncc(F)c3)nc12` [I-222b, (1S)-1-[5-(5-Fluoro-3-pyridyl)-7-[2-(1H-indol-3-yl)ethylamino]pyrazolo[1,5-a]pyrimidin-3-yl]ethanol], the IC50 at AHR was less than 500 nM. In series [1] (po, 30 mg/kg), this compound registered a bioavailability of 51%, an AUC(0-inf) of 2870 ng·h/mL, an AUC(0-t) of 2860 ng·h/mL and a Cmax of 2170 ng/mL. In series [1] (po, 30 mg/kg), the Tmax was 0.2 h and the half-life is 3.3 h. In series [1] (iv, 3 mg/kg), the AUC(0-inf) was found to be 567 ng·h/mL, the AUC(0-t) was found to be 564 ng·h/mL, the clearance was 88.1 mL/min/kg and the half-life was 1.8 h. Besides, in series [1] (iv, 3 mg/kg), the Vd worked out at 2 L/kg. Further, in series [2], the “Mouse S9 Stability: % Remaining After 60 Minutes” value is given as 0%.
